Molecules are shown by their SMILES. Values joined by “and” are separate entries in the source; they are usually repeats but may differ in a detail not shown here. Identical values can stand only once.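 In this assay, cells in 96-well plates receive the compound at five concentrations for 48 hours. Endpoints are linearly interpolated between the surrounding concentrations. Abbreviation: GI50, concentration required for 50% inhibition of growth. Definition used: TGI = concentration required for complete inhibition of growth.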

This test concerns SN12K1 renal. The test is described as follows: growth of human tumour cells (NCI), 48 h.

Regarding `CC(=O)OC(C)(C)/C=C/C(=O)[C@](C)(O)[C@H]1[C@H](O)C[C@@]2(C)[C@@H]3CC=C4[C@@H](C=C(O)C(=O)C4(C)C)[C@]3(C)C(=O)C[C@]12C`, the GI50 was 15.5 nM; the TGI was 287 nM and 60.4 nM.

These data come from PubChem BioAssay (NCI).
